Assay results as given in patent publication US12077503B2, “Substituted cyclic amides and their use as herbicides” (FMC CORPORATION, priority 2015, dated 2024).

Columns and labels:
Format in all cases: in vivo
[1] = tested on: ragweed (common ragweed, Ambrosia elatior); assay: Test A preemergence; details: Ambrosia artemisiifolia, pre-emergence, 240 h, preemergence, 0 to 100 scale where 0 is no effect and 100 is complete control, read-out: Ragweed plant response rating
Outline: (§1)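 Greenhouse, ~10 d after spray; visual injury vs untreated controls, 0 = no effect, 100 = complete control. Preemergence: directed soil spray over planted seeds. Postemergence: plants 2–10 cm, 1–2 leaf stage. Loam/sand blend. Compound in non-phytotoxic solvent with surfactant.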

[2] = tested on: ryegrass, Italian (Italian ryegrass, Lolium multiflorum); assay: Test A preemergence; details: Lolium multiflorum, pre-emergence, 240 h, preemergence, 0 to 100 scale where 0 is no effect and 100 is complete control, read-out: Ryegrass, Italian plant response rating
Outline: as §1

Kochia (Kochia scoparia) [3] = assay: Test A preemergence; details: Bassia scoparia, pre-emergence, 240 h, preemergence, 0 to 100 scale where 0 is no effect and 100 is complete control, read-out: Kochia plant response rating
Outline: as §1

[4] = tested on: giant foxtail (Setaria faberii); assay: Test A preemergence; details: Setaria faberi, pre-emergence, 240 h, preemergence, 0 to 100 scale where 0 is no effect and 100 is complete control, read-out: Foxtail, Giant plant response rating
Outline: as §1

[5] = tested on: pigweed (Amaranthus retroflexus); assay: Test A preemergence; details: Amaranthus retroflexus, pre-emergence, 240 h, preemergence, 0 to 100 scale where 0 is no effect and 100 is complete control, read-out: Pigweed plant response rating
[6] = tested on: wheat (Triticum aestivum); assay: Test A postemergence; details: Triticum aestivum, post-emergence, 240 h, Postemergence
Outline: as §1

[7] = tested on: ragweed (common ragweed, Ambrosia elatior); assay: Test A postemergence; details: Ambrosia artemisiifolia, post-emergence, 240 h, Postemergence
Outline: as §1

[8] = tested on: ryegrass, Italian (Italian ryegrass, Lolium multiflorum); assay: Test A postemergence; details: Lolium multiflorum, post-emergence, 240 h, Postemergence
Outline: as §1

[9] = tested on: Galium (catchweed bedstraw, Galium aparine); assay: Test A postemergence; details: Galium, post-emergence, 240 h, Postemergence
Outline: as §1

[10] = tested on: barnyardgrass (Echinochloa crus-galli); assay: Test A postemergence; details: Echinochloa crus-galli, post-emergence, 240 h, Postemergence
Outline: as §1

corn (Zea mays) = assay: Test A postemergence; details: Zea mays, post-emergence, 240 h, Postemergence
Outline: as §1

Kochia (Kochia scoparia) [11] = assay: Test A postemergence; details: Bassia scoparia, post-emergence, 240 h, Postemergence
Outline: as §1

[12] = tested on: giant foxtail (Setaria faberii); assay: Test A postemergence; details: Setaria faberi, post-emergence, 240 h, Postemergence
Outline: as §1

[13] = tested on: blackgrass (Alopecurus myosuroides); assay: Test A postemergence; details: Alopecurus myosuroides, post-emergence, 240 h, Postemergence
Outline: as §1

[14] = tested on: pigweed (Amaranthus retroflexus); assay: Test A postemergence; details: Amaranthus retroflexus, post-emergence, 240 h, Postemergence
Outline: as §1

[15] = 125 g ai/ha, visual injury rating, approximately 10 d

SMILES: Cc1c(F)cccc1NC(=O)[C@H]1C(=O)NC[C@@H]1c1cccc2c1OC(F)(F)O2 [Compound 1305]
- pest or weed control at 125 g/ha [1, 15]: 0%
- pest or weed control at 500 g/ha ([1]; 500 g ai/ha): 0%
- pest or weed control at 125 g/ha [2, 15]: 0%
- pest or weed control at 500 g/ha ([2]; 500 g ai/ha): 0%
- pest or weed control at 125 g/ha (Kochia (Kochia scoparia) [3]; [15]): 0%
- pest or weed control at 500 g/ha (Kochia (Kochia scoparia) [3]; 500 g ai/ha): 0%
- pest or weed control at 125 g/ha [4, 15]: 90%
- pest or weed control at 500 g/ha ([4]; 500 g ai/ha): 90%
- pest or weed control at 125 g/ha [5, 15]: 0%
- pest or weed control at 500 g/ha ([5]; 500 g ai/ha): 0%
- plant injury at 125 g/ha ([6]; 125 g ai/ha, visual rating about 10 d after treatment, read-out: Wheat plant response rating (0 to 100 scale)): 0%
- plant injury at 500 g/ha ([6]; 500 g ai/ha, visual injury, 0 to 100 scale (0 no effect, 100 complete control), approx. 10 d, read-out: Plant response rating, Wheat): 20%
- pest or weed control at 125 g/ha ([7]; 125 g ai/ha, visual rating about 10 d after treatment, read-out: Ragweed plant response rating (0 to 100 scale)): 0%
- pest or weed control at 500 g/ha ([7]; 500 g ai/ha, visual injury, 0 to 100 scale (0 no effect, 100 complete control), approx. 10 d, read-out: Plant response rating, Ragweed): 0%
- pest or weed control at 125 g/ha ([8]; 125 g ai/ha, visual rating about 10 d after treatment, read-out: Ryegrass, Italian plant response rating (0 to 100 scale)): 0%
- pest or weed control at 500 g/ha ([8]; 500 g ai/ha, visual injury, 0 to 100 scale (0 no effect, 100 complete control), approx. 10 d, read-out: Plant response rating, Ryegrass, Italian): 0%
- pest or weed control at 125 g/ha ([9]; 125 g ai/ha, visual rating about 10 d after treatment, read-out: Galium plant response rating (0 to 100 scale)): 0%
- pest or weed control at 500 g/ha ([9]; 500 g ai/ha, visual injury, 0 to 100 scale (0 no effect, 100 complete control), approx. 10 d, read-out: Plant response rating, Galium): 0%
- pest or weed control at 125 g/ha ([10]; 125 g ai/ha, visual rating about 10 d after treatment, read-out: Barnyardgrass plant response rating (0 to 100 scale, 0 no effect, 100 complete control)): 60%
- pest or weed control at 500 g/ha ([10]; 500 g ai/ha, visual injury, 0 to 100 scale (0 no effect, 100 complete control), approx. 10 d, read-out: Plant response rating, Barnyardgrass): 80%
- plant injury at 125 g/ha (corn (Zea mays); 125 g ai/ha, visual rating about 10 d after treatment, read-out: Corn plant response rating (0 to 100 scale)): 0%
- Corn plant response rating (crop injury, 0 = no effect, 100 = complete kill) at 500 g/ha (corn (Zea mays); 500 g ai/ha, visual injury, 0 to 100 scale (0 no effect, 100 complete control), approx. 10 d): 0%
- pest or weed control at 125 g/ha (Kochia (Kochia scoparia) [11]; 125 g ai/ha, visual rating about 10 d after treatment, read-out: Kochia plant response rating (0 to 100 scale)): 0%
- pest or weed control at 500 g/ha (Kochia (Kochia scoparia) [11]; 500 g ai/ha, visual injury, 0 to 100 scale (0 no effect, 100 complete control), approx. 10 d, read-out: Plant response rating, Kochia): 0%
- pest or weed control at 125 g/ha ([12]; 125 g ai/ha, visual rating about 10 d after treatment, read-out: Foxtail, Giant plant response rating (0 to 100 scale)): 80%
- pest or weed control at 500 g/ha ([12]; 500 g ai/ha, visual injury, 0 to 100 scale (0 no effect, 100 complete control), approx. 10 d, read-out: Plant response rating, Foxtail, Giant): 90%
- pest or weed control at 125 g/ha ([13]; 125 g ai/ha, visual rating about 10 d after treatment, read-out: Blackgrass plant response rating (0 to 100 scale)): 0%
- pest or weed control at 500 g/ha ([13]; 500 g ai/ha, visual injury, 0 to 100 scale (0 no effect, 100 complete control), approx. 10 d, read-out: Plant response rating, Blackgrass): 0%
- pest or weed control at 125 g/ha ([14]; 125 g ai/ha, visual rating about 10 d after treatment, read-out: Pigweed plant response rating (0 to 100 scale)): 0%
- pest or weed control at 500 g/ha ([14]; 500 g ai/ha, visual injury, 0 to 100 scale (0 no effect, 100 complete control), approx. 10 d, read-out: Plant response rating, Pigweed): 0%
